Experimental data as given in patent publication US20100234390A1, “NOVEL COMPOUND AND THEIR USE” (priority 2007, published 2010).
≈ marks a conversion by molar mass, not a printed value. Blank lines part the entries; values can stand above or below the compound they belong to.

Key:
Experiment in all cases: Agar dilution MIC
Settings in all cases: 16-20 hours
[1] = test system: S. aureus ATCC 29213; assay type: cell-based, Staphylococcus aureus
Description: (§1) Briefly, the compounds of invention were weighed, dissolved in dimethyl sulfoxide, serially two fold diluted in the same solvent and then incorporated into molten Mueller Hinton Agar (MHA) in a petridish just before solidification, with each petridish containing a different concentration of a compound.
(§2) The bacterial inoculum was prepared by picking 3 to 5 well isolated bacterial colonies with the same morphological appearance from an 18-24 hours old culture with an inoculating loop, transferring the growth to a tube containing 3 mL of normal saline and adjusting the turbidity of the saline suspension to 0.5 Mc Farland Turbidity Standard equivalent to a bacterial population of 1.5×10^8 colony forming units (CFU) per mL of suspension. The suspension was diluted 1:10 in saline (i.e. 0.5 mL suspension 4.5 mL saline) to get a bacterial population of 1.5×10^7 CFU/mL as inoculum.
(§3) The inoculated petridishes were incubated at 35° C. in an ambient atmosphere for 16-20 hours.

[2] = test system: S. aureus ATCC 43300; assay type: cell-based, Staphylococcus aureus
Description: as §1, §2, §3

[3] = test system: S. aureus MRO 00013; assay type: cell-based, Staphylococcus aureus
Description: as §1, §2, §3

[4] = test system: S. aureus MRO 0001; assay type: cell-based, Staphylococcus aureus
Description: as §1, §2, §3

[5] = test system: S. aureus MRO 00030; assay type: cell-based, Staphylococcus aureus
Description: as §1, §2, §3

[6] = test system: S. aureus MRO 0003; assay type: cell-based, Staphylococcus aureus
Description: as §1, §2, §3

[7] = test system: S. aureus MRO 00048; assay type: cell-based, Staphylococcus aureus
Description: as §1, §2, §3

[8] = test system: S. aureus MRO 00055; assay type: cell-based, Staphylococcus aureus
Description: as §1, §2, §3

[9] = test system: S. aureus MRO 00059; assay type: cell-based, Staphylococcus aureus
Description: as §1, §2, §3

[10] = test system: S. aureus MRO 002053; assay type: cell-based, Staphylococcus aureus
Description: as §1, §2, §3

[11] = test system: S. epidermidis MRO 002046; assay type: cell-based
Description: as §1, §2, §3

[12] = test system: S. epidermidis MRO 02002; assay type: cell-based
Description: as §1, §2, §3

[13] = test system: S. epidermidis MRO 02045; assay type: cell-based
Description: as §1, §2, §3

[14] = test system: S. epidermidis MRO 02095; assay type: cell-based
Description: as §1, §2, §3

[15] = test system: S. haemolyticus MRO 02064; assay type: cell-based
Description: as §1, §2, §3

[16] = test system: S. saprophyticus MRO 02003; assay type: cell-based
Description: as §1, §2, §3

[17] = test system: E. faecalis ATCC 29212; assay type: cell-based, Enterococcus faecalis
Description: as §1, §2, §3

[18] = test system: E. faecalis ATCC 51299; assay type: cell-based, Enterococcus faecalis
Description: as §1, §2, §3

[19] = test system: E. faecalis MRO 04035; assay type: cell-based, Enterococcus faecalis
Description: as §1, §2, §3

[20] = test system: E. faecalis MRO 04050; assay type: cell-based, Enterococcus faecalis
Description: as §1, §2, §3

[21] = test system: E. faecalis MRO 04205; assay type: cell-based, Enterococcus faecalis
Description: as §1, §2, §3

[22] = test system: E. faecium ATCC 700221; assay type: cell-based, Enterococcus faecium
Description: as §1, §2, §3

[23] = test system: E. faecium MRO 04037; assay type: cell-based, Enterococcus faecium
Description: as §1, §2, §3

[24] = test system: E. faecium MRO 04038; assay type: cell-based, Enterococcus faecium
Description: as §1, §2, §3

[25] = test system: E. faecium MRO 04198; assay type: cell-based, Enterococcus faecium
Description: as §1, §2, §3

[26] = test system: M. catarrhalis ATCC 43617; assay type: cell-based, Moraxella catarrhalis
Description: as §1, §2, §3

[27] = test system: M. catarrhalis ATCC 43627; assay type: cell-based, Moraxella catarrhalis
Description: as §1, §2, §3

[28] = test system: M. catarrhalis ATCC 43628; assay type: cell-based, Moraxella catarrhalis
Description: as §1, §2, §3

Compound: COC(=S)NC[C@H]1CN(c2ccc(N3CCN(C(=O)c4ccc(N)nc4)CC3)c(F)c2)C(=O)O1 [Example 37, (S)—O-Methyl(3-(4-(4-(6-aminonicotinoyl)piperazin-1-yl)-3-fluorophenyl)-2-oxooxazolidin-5-yl)methylcarbamothioate]
Antimicrobial Screening (MIC) ([1]; 35° C.): 0.5 µg/mL | Antimicrobial Screening (MIC) ([2]; 35° C.): 0.5 µg/mL | Antimicrobial Screening (MIC) ([3]; 35° C.): 0.5 µg/mL | Antimicrobial Screening (MIC) ([4]; 35° C.): 0.25 µg/mL | Antimicrobial Screening (MIC) ([5]; 35° C.): 0.5 µg/mL | Antimicrobial Screening (MIC) ([6]; 35° C.): 0.5 µg/mL | Antimicrobial Screening (MIC) ([7]; 35° C.): 0.25 µg/mL | Antimicrobial Screening (MIC) ([8]; 35° C.): 0.5 µg/mL | Antimicrobial Screening (MIC) ([9]; 35° C.): 0.5 µg/mL | Antimicrobial Screening (MIC) ([10]; 35° C.): 0.25 µg/mL | Antimicrobial Screening (MIC) ([11]; 35° C.): 0.5 µg/mL | Antimicrobial Screening (MIC) ([12]; 35° C.): 0.5 µg/mL | Antimicrobial Screening (MIC) ([13]; 35° C.): 0.25 µg/mL | Antimicrobial Screening (MIC) ([14]; 35° C.): 0.5 µg/mL | Antimicrobial Screening (MIC) ([15]; 35° C.): 0.25 µg/mL | Antimicrobial Screening (MIC) ([16]; 35° C.): 0.5 µg/mL | Antimicrobial Screening (MIC) ([17]; 35° C.): 0.25 µg/mL | Antimicrobial Screening (MIC) ([18]; 35° C.): 0.25 µg/mL | Antimicrobial Screening (MIC) ([19]; 35° C.): 0.25 µg/mL | Antimicrobial Screening (MIC) ([20]; 35° C.): 0.25 µg/mL | Antimicrobial Screening (MIC) ([21]; 35° C.): 0.25 µg/mL | Antimicrobial Screening (MIC) ([22]; 35° C.): 0.25 µg/mL | Antimicrobial Screening (MIC) ([23]; 35° C.): 0.25 µg/mL | Antimicrobial Screening (MIC) ([24]; 35° C.): 0.25 µg/mL | Antimicrobial Screening (MIC) ([25]; 35° C.): 0.25 µg/mL | Antimicrobial Screening (MIC) ([26]; 35° C.): 1 µg/mL | Antimicrobial Screening (MIC) ([27]; 35° C.): 2 µg/mL | Antimicrobial Screening (MIC) ([28]; 35° C.): 1 µg/mL

MIC ([1]; Staphylococcus aureus, ATCC29213, 35° C., read-out: Antimicrobial Screening (MIC)): 1 µg/mL (≈ 2.29 µM) | MIC ([2]; Staphylococcus aureus, ATCC43300, 35° C., read-out: Antimicrobial Screening (MIC)): 0.5 µg/mL (≈ 1.15 µM) | MIC ([3]; Staphylococcus aureus, MRO00013, 35° C., read-out: Antimicrobial Screening (MIC)): 1 µg/mL (≈ 2.29 µM) | MIC ([4]; Staphylococcus aureus, MRO0001, 35° C., read-out: Antimicrobial Screening (MIC)): 0.5 µg/mL (≈ 1.15 µM) | MIC ([5]; Staphylococcus aureus, MRO00030, 35° C., read-out: Antimicrobial Screening (MIC)): 1 µg/mL (≈ 2.29 µM) | MIC ([6]; Staphylococcus aureus, MRO0003, 35° C., read-out: Antimicrobial Screening (MIC)): 1 µg/mL (≈ 2.29 µM) | MIC ([7]; Staphylococcus aureus, MRO00048, 35° C., read-out: Antimicrobial Screening (MIC)): 0.5 µg/mL (≈ 1.15 µM) | MIC ([8]; Staphylococcus aureus, MRO00055, 35° C., read-out: Antimicrobial Screening (MIC)): 1 µg/mL (≈ 2.29 µM) | MIC ([9]; Staphylococcus aureus, MRO00059, 35° C., read-out: Antimicrobial Screening (MIC)): 0.5 µg/mL (≈ 1.15 µM) | MIC ([10]; Staphylococcus aureus, MRO002053, 35° C., read-out: Antimicrobial Screening (MIC)): 0.5 µg/mL (≈ 1.15 µM) | MIC ([11]; Staphylococcus epidermidis, MRO002046, 35° C., read-out: Antimicrobial Screening (MIC)): 0.5 µg/mL (≈ 1.15 µM) | MIC ([12]; Staphylococcus epidermidis, MRO02002, 35° C., read-out: Antimicrobial Screening (MIC)): 1 µg/mL (≈ 2.29 µM) | MIC ([13]; Staphylococcus epidermidis, MRO02045, 35° C., read-out: Antimicrobial Screening (MIC)): 1 µg/mL (≈ 2.29 µM) | MIC ([14]; Staphylococcus epidermidis, MRO02095, 35° C., read-out: Antimicrobial Screening (MIC)): 0.5 µg/mL (≈ 1.15 µM) | MIC ([16]; Staphylococcus saprophyticus, MRO02003, 35° C., read-out: Antimicrobial Screening (MIC)): 1 µg/mL (≈ 2.29 µM) | MIC ([17]; Enterococcus faecalis, ATCC29212, 35° C., read-out: Antimicrobial Screening (MIC)): 0.5 µg/mL (≈ 1.15 µM) | MIC ([18]; Enterococcus faecalis, ATCC51299, 35° C., read-out: Antimicrobial Screening (MIC)): 0.5 µg/mL (≈ 1.15 µM) | MIC ([19]; Enterococcus faecalis, MRO04035, 35° C., read-out: Antimicrobial Screening (MIC)): 0.5 µg/mL (≈ 1.15 µM) | MIC ([20]; Enterococcus faecalis, MRO04050, 35° C., read-out: Antimicrobial Screening (MIC)): 0.5 µg/mL (≈ 1.15 µM) | MIC ([21]; Enterococcus faecalis, MRO04205, 35° C., read-out: Antimicrobial Screening (MIC)): 0.5 µg/mL (≈ 1.15 µM) | MIC ([22]; Enterococcus faecium, ATCC700221, 35° C., read-out: Antimicrobial Screening (MIC)): 0.5 µg/mL (≈ 1.15 µM) | MIC ([23]; Enterococcus faecium, MRO04037, 35° C., read-out: Antimicrobial Screening (MIC)): 0.5 µg/mL (≈ 1.15 µM) | MIC ([24]; Enterococcus faecium, MRO04038, 35° C., read-out: Antimicrobial Screening (MIC)): 0.5 µg/mL (≈ 1.15 µM) | MIC ([25]; Enterococcus faecium, MRO04198, 35° C., read-out: Antimicrobial Screening (MIC)): 0.5 µg/mL (≈ 1.15 µM) | MIC ([26]; Moraxella catarrhalis, ATCC43617, 35° C., read-out: Antimicrobial Screening (MIC)): 1 µg/mL (≈ 2.29 µM) | MIC ([27]; Moraxella catarrhalis, ATCC43627, 35° C., read-out: Antimicrobial Screening (MIC)): 2 µg/mL (≈ 4.58 µM) | MIC ([28]; Moraxella catarrhalis, ATCC43628, 35° C., read-out: Antimicrobial Screening (MIC)): 2 µg/mL (≈ 4.58 µM)
Compound: COC(=S)NC[C@H]1CN(c2ccc(N3CCN(C(=O)C4CC4)CC3)c(F)c2)C(=O)O1 [Example 47, (S)—O-Methyl (3-(4-(4-(cyclopropanecarbonyl)piperazin-1-yl)-3-fluorophenyl)-2-oxooxazolidin-5-yl)methylcarbamothioate]
MIC ([15]; Staphylococcus haemolyticus, MRO02064, 35° C., read-out: Antimicrobial Screening (MIC)): 0.5 µg/mL (≈ 1.15 µM)
